Measurements taken from patent US5591715A, “Methods and compositions for reducing multidrug resistance” (priority 1995, dated 1997).
Converted amounts (≈) assume the structure as drawn.

Experiments:
KB 8-5-11 cells [1] = assay: Relative RMA activity: percent KB 8-5-11 (MDR) cells showing rhodamine 123 fluorescence in the range of sensitive KB 3-1 cells; type: cell-based, human; conditions: Table V, none = 0.6
Description: Efflux of rhodamine 123 from MDR cells was also examined to provide direct information about the action of the transport protein Mdr 1. Enhanced accumulation of the P-gp substrate, rhodamine 123, in multidrug resistant KB 8-5-11 cells was used to measure RMA activity. Flow cytometric analysis was performed as described (Coon et al., 1991; Buckingham et al. 1995). Briefly, multidrug resistant KB 8-5-11 cells (0.5×10^6 cells/ml) were incubated with […] rhodamine 123 at 37° C. in the presence or absence of the putative RMA. After 60 min., mean intracellular steady state rhodamine 123 fluorescence was measured on an Epics Profile How Cytometer (Coulter, Hialeah, Fla.).
SOLUTOL® HS 15 was fractionated using reverse phase liquid chromatography to determine where the activity resides in the preparation. An approximately 50% solution of SOLUTOL® HS 15 was prepared in 100% acetonitrile (ACN) and water. One ml of the SOLUTOL® HS 15 solution was injected onto a Phenomenex IB-Sil reversed phase column. The column has 5 μm particles, and is 4.6 mm internal diameter by 150 mm. The flow rate was 2.0 ml/min. The mobile phase was as follows: A=5% ACN and B=100% ACN. The gradient was linear with 100% A to 100% B in 15 minutes, then was maintained at 100% B. Fractions were collected at 30 second intervals. The various fractions were assayed for RMA activity as described in Example III. […] 145-149, 1989.
The various fractions obtained from the reverse phase liquid chromatography were analyzed to determine the RMA activity in each fraction. The fractions were then analyzed by infrared spectrophotometry.
^a Percent cells KB85-11 (MDR) showing rhodamine 123 fluorescence in
the range of sensitive cell (KB31) in the same experiment.
CREMOPHOR® EL was fractionated by super critical extraction. Approximately 25 grams of CREMOPHOR® EL was thoroughly mixed with 20 grams of hydromatrix (silicon dioxide) manufactured by Varian--Harbor City, Calif. 40710 and loaded into a stainless steel high pressure extraction cell. The extraction cell was maintained at 40° C. Supercritical carbon dioxide was pumped into the extraction cell at a rate of approximately 3 liters of gaseous carbon dioxide per minute (4 ml of supercritical carbon dioxide per minute). The extractable material was dissolved under the extraction conditions, and separated from the matrix. The supercritical carbon dioxide solution with dissolved component was then depressurized to evaporate the carbon dioxide gas, and to precipitate the solute. […]
^a Percent KB 85-11 (MDR) cells showing rhodamine 123 fluorescence in
The RMA activity of various fatty acids, PEG monoesters and PEG diesters was determined by the method described in Example III. […]

KB 8-5-11 cells [2] = assay: cells; type: cell-based; conditions: Homo sapiens, 1 h, Table V, read-out: MFI (T/U), treated cells/untreated cells; for fold induction at 100 µg/mL: KB8-5-11, 100 μg/ml
Description: A series of PEG domains of average MW 600, 900 or 1500 was synthesized.

KB 3-1 cells = assay: cells; type: cell-based; conditions: Homo sapiens, KB 3-1, 1 h, Table V, read-out: MFI (T/U), treated cells/untreated cells; for fold induction at 100 µg/mL: KB3-1, 100 μg/ml
Description: ^b Mean Fluorescence Intensity resulting from intracellular rhodamine

[3] = In vivo tolerability of RMA; conditions: dosages achieving equivalent or superior reversal of MDR vs verapamil
in vitro [4] = conditions: human, kb 8-5-11 cells
in vitro [5] = conditions: human, kb 3-1 cells
in vitro [6] = conditions: human, k562/iii cells
Description: The chromogenic substrate, MTT (Sigma), was used to enumerate viable cells. […] For the Resistance Modification Index (RMI, Eliason et al., 1990), cells were prepared in microtiter plates and incubated with the indicated drugs and RMA. RMI was calculated as the IC50 of drug alone/IC50 of drug+RMA. The average RMI was calculated from at least three independent assays.
Growth is related as % relative to untreated cells.

[7] = test system: multidrug resistant cells; conditions: cited from earlier work
in vitro [8] = conditions: human, kb 8-5 cells
Mdr1 protein = conditions: cited from earlier work

CC/C=C\C/C=C\C/C=C\CCCCCCCC(=O)O [Linolenic Acid]
Relative RMA Activity (KB 8-5-11 cells [1]; 10 μg/ml): 1.3% | Relative RMA Activity (KB 8-5-11 cells [1]; 100 μg/ml): 9.2% | fold induction at 10 µg/mL (KB 8-5-11 cells [2]; KB8-5-11, 10 μg/ml): 0.9 | fold induction at 100 µg/mL (KB 8-5-11 cells [2]): 1.7 | fold induction at 10 µg/mL (KB 3-1 cells; KB3-1, 10 μg/ml): 1.2 | fold induction at 100 µg/mL (KB 3-1 cells): 1.7

COc1ccc(CCN(C)CCCC(C#N)(c2ccc(OC)c(OC)c2)C(C)C)cc1OC (stereo not shown) [Verapamil]
in vivo tolerability [3]: marked toxicity | CC50 at 72 h (in vitro [4]): 27 µg/mL (≈ 59.4 µM) | CC50 at 72 h (in vitro [5]): 40 µg/mL (≈ 88 µM) | CC50 at 72 h (in vitro [6]): 38 µg/mL (≈ 83.6 µM) | effect against VP-16 multidrug resistance (literature) [7]: not effective against VP-16 multidrug resistance | intracellular localization of doxorubicin with added agent (literature) ([7]; drug resistant cells): doxorubicin is localized mainly in the nucleus in drug resistant cells | CC50 at 72 h (in vitro [8]): 10 µg/mL (≈ 22 µM)

[N-]=[N+]=[N-] [azide]
RMA activity / reversal of multidrug resistance (literature) ([7]; in vitro): reverse multidrug resistance in vitro

CCCCCCCCCCCCCCCCCC(=O)O [Stearic Acid]
Relative RMA Activity (KB 8-5-11 cells [1]; 100 μg/ml): 2.1% | fold induction at 100 µg/mL (KB 8-5-11 cells [2]): 1.4 | fold induction at 100 µg/mL (KB 3-1 cells): 1.9

COc1cc2c(c(OC)c1OC)-c1ccc(OC)c(=O)cc1[C@@H](NC(C)=O)CC2 [Colchicine, colchicine]
competition for vinblastine binding (Mdr1 protein): does not compete for vinblastine binding | interaction with identified drug-binding site on Mdr1 protein (Mdr1 protein): interact weakly with the identified drug-binding site on the Mdr1 protein

CCCCCCCC/C=C\CCCCCCCC(=O)O [Oleic Acid]
Relative RMA Activity (KB 8-5-11 cells [1]; 100 μg/ml): 2.7% | fold induction at 100 µg/mL (KB 8-5-11 cells [2]): 1.7 | fold induction at 100 µg/mL (KB 3-1 cells): 2.1
